Target: T1, Adrenergic receptor alpha-2 (Homo sapiens, UniProt P08913+P18825+P18089)
T1 sequence (P08913 whole entry): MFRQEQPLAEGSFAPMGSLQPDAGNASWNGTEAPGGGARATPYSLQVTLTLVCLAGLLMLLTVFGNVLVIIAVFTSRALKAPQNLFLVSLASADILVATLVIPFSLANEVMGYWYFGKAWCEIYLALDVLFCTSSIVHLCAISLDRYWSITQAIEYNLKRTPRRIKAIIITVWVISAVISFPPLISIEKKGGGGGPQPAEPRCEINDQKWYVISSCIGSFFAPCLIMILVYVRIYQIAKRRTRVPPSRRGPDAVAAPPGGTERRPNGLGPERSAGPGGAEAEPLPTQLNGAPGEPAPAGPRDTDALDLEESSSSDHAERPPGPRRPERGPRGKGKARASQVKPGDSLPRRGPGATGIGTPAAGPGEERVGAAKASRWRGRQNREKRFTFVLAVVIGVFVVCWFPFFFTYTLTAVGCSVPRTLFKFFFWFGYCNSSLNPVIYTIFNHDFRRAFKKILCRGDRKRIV
T1 sequence (P18825 whole entry): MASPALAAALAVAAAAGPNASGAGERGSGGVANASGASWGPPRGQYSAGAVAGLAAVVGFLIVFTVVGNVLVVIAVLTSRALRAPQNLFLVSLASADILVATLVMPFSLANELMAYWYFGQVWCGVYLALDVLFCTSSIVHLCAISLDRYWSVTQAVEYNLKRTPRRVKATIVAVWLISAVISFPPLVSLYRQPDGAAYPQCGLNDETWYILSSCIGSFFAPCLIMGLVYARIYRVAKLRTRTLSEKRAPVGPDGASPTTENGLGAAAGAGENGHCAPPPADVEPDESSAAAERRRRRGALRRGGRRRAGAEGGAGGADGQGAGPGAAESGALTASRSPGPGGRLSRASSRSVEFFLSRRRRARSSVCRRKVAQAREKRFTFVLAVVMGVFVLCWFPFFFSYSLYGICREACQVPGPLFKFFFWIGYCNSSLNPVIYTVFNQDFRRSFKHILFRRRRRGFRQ
T1 sequence (P18089 whole entry): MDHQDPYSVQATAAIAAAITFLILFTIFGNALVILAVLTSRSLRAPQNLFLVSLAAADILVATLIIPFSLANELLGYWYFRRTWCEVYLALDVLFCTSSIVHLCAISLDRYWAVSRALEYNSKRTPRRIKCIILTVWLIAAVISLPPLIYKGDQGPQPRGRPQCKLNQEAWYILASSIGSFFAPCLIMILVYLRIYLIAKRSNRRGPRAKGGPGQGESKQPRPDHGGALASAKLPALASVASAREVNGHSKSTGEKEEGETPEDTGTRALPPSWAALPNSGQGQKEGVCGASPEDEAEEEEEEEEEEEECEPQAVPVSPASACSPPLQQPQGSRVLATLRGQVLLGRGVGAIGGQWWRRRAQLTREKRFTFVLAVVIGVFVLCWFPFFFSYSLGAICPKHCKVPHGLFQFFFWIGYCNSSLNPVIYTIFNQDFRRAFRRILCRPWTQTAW

`O=[N+]([O-])c1cc(Cl)c(N=C2NCCN2)c(Cl)c1` gave an IC50 of 10 µM.
Work on `Clc1cc(N=NN2CCCC2)cc(Cl)c1NC1=NCCN1` yielded an IC50 of 2 µM.
